Measurements: patent US4435591A, “Compound with analgesic, antiinflammatory and antipyretic activity, and pharmaceutical compositions therefrom” (Ausonia Farmaceutici s.r.l., priority 1982, dated 1984)
Several values for one entry are separate records, joined by “and”; a condition that tells them apart may be missing. Equal entries are not always repeated. Where two headings read alike, the source gives them in different places.

Experiments:
[1] = in vivo; assay type: in vivo; settings: mouse, in vivo, mice, read-out: DL50 (limit of error 95%)
[2] = test system: mice; assay: in vivo; assay type: in vivo; settings: mice and rats, particularly by the oral route
[3] = in vivo; settings: rat, rats, read-out: DL50 (limit of error 95%)
[4] = test system: subplantar edema caused by carrageenan in rats; assay: Edema caused by carrageenan in rats (Winter et al); assay type: in vivo; settings: oral, AFP 802 187 mg/Kg, ibuprofen 100 mg/Kg
Method: The anti-inflammatory activity has been investigated by a series of tests using edema caused by carrageenan and kaolin pleuritis caused by carrageenan and arthritis caused by an adjuvant.
The plyethysmographic observations of the edema have been carried out every hour for a period of 7 hours after the induction of the edema.

[5] = test system: Pleuritis caused by carrageenan in rats; assay: Pleuritis caused by carrageenan in rats (Vinegar et al); assay type: in vivo; settings: for Number of leucocytes × 1,000 / Volume of exudate in cc / Number of leucocytes, % inhibition with respect to the controls / Volume of exudate, % inhibition with respect to the controls: 100 mg/Kg oral
[6] = test system: Arthritis caused by the adjuvant of Freund in rats; assay: Arthritis caused by the adjuvant in rats (Winter and Nuss); assay type: in vivo
From the text: For the evaluation for the efficiency of the substance the following parameters have been considered: diameter of articulations, volume of the hind paws, hematological and hematochemical examination, weight of the suprarenal glands and thymus.

[7] = test system: Writhing caused by phenylquinone in mice; assay: Writhing caused by phenylquinone in mice (Siegmung et al); assay type: in vivo
From the text: The analgesic activity of AFP 802 has been studied by means of the writhing test with phenylquinone in mice and by means of the test of Randall and Selitto in rats.

[8] = test system: Test of Randall and Selitto, in rats; assay: Test of Randall and Selitto in rats; assay type: in vivo
Method: The analgesic activity of AFP 802 has been studied by means of the writhing test with phenylquinone in mice and by means of the test of Randall and Selitto in rats. Test of Randall and Selitto in rats. This test was carried out according to the method of L. Randall and J. Selitto reported in Arch. Int. Pharmacodyn., 1957 III, 409. […] The variations of pressure tolerated without variation in pain have been determined each hour, for 5 consecutive hours and the results are reported in Table 10.

[9] = test system: Hyperthermia caused by yeast; assay: Antipyretic activity, hyperthermia caused by yeast in rats (Boissier and Simon); assay type: in vivo
From the text: The experiment has been carried out in rats in which the body temperature has been increased by means of yeast by the method according to J. R. Boissier and P. Simon (Therapie, 1962, 17, 1225). […] It is, however, necessary to keep in mind the difference in molecular weight between the two substances under examination.

[10] = test system: gastric mucosa; set-up: species or system rats; settings: rat, in vivo, po
[11] = Pharmacokinetics, plasma levels after oral administration in rats; assay type: in vivo
Method: (§1) AFP 802 has been administered orally in the dose of 200 mg/kg in rats. […] The animals are killed in groups of four after the following time periods; 15 minutes, 30 minutes, 1 hour, 2 hours, 4 hours, 6 hours and 24 hours.

[12] = Organ to plasma ratio of ibuprofen concentrations in rats; assay type: in vivo; settings: vs administration of ibuprofen
Method: as §1

[13] = test system: Edema caused by kaolin in rats; assay: Edema caused by kaolin in rats (Coulon et al); settings: 5 consecutive days
[14] = both paws, area under the curve of the increases, 100 mg/Kg/die oral

## COc1cc(C(=O)OCC(C)c2ccc(CC(C)C)cc2)cc(OC)c1OC (centres unmarked) [AFP 802, 2-(4-isobutylphenyl)1-propanol 3,4,5-trimethoxybenzoate]
[1]; ip, intraperitoneal route
  LD50: 1750 mg/kg
[1]; oral route
  LD50: > 4000 mg/kg
[2]
  DL50 compared with ibuprofen (in words): more favorable than ibuprofen particularly by the oral route
[3]; ip, intraperitoneal route
  LD50: 193 mg/kg
[3]; oral route
  LD50: > 4000 mg/kg
[4]; 0 hours
  Average volume of the paw: 22.6
[4]; 1 hour
  Average volume of the paw: 27.9
[4]; 2 hours
  Average volume of the paw: 28.6
[4]; 3 hours
  Average volume of the paw: 28.4
[4]; 4 hours
  Average volume of the paw: 28.9
[4]; 5 hours
  Average volume of the paw: 29.6
[4]; area
  % inhibition vs control: 60.4%
[4]
  Area Absolute Value: 119.3
[5]; 5 hours
  Number of leucocytes × 1,000: 4,804 × 1,000
  Volume of exudate in cc: 0.56 cc
[5]; 5 hours, 100 mg/kg
  Number of leucocytes, % inhibition with respect to the controls: 71.80% and 72%
  Volume of exudate, % inhibition with respect to the controls: 43.43% and 43%
[5]; 5 hours, equal doses by weight
  effect in pleuritis compared with ibuprofen (in words): analogous to the values obtained by administration of equal doses by weight of ibuprofen
[5]; 24 hours after the administration
  effect in pleuritis (in words): practically unchanged
[5]; 24 hours
  Number of leucocytes × 1,000: 7,676 × 1,000
  Number of leucocytes, % inhibition with respect to the controls: 58.05%
  Volume of exudate in cc: 0.47 cc
  Volume of exudate, % inhibition with respect to the controls: 48.91%
[6]; 100 mg/Kg/die oral
  ALBUMIN (%): 70.3 ± 0.97%
  GLOBULIN (%) α1: 7.2 ± 0.36%
  GLOBULIN (%) α2: 6.2 ± 0.38%
  GLOBULIN (%) β1: 11.7 ± 0.30%
  GLOBULIN (%) β2: 5.7 ± 0.45%
  GLOBULIN (%) γ: 2.0 ± 0.31%
  Hematocrit: 46.1 ± 0.6
  Red Cells: 5,912.600 ± 1.434 × mm^3
  VES: 0.9 ± 0.1
[6]; [14]
  Σ Diameter D + S, Area: 2,602.0
  Σ Volume D + S, Area: 15,652
[6]; both paws, 100 mg/Kg/die oral
  Σ Diameter D + S, % inhibition: 71.08%
  Σ Volume D + S, % inhibition: 47.76%
[6]; oral, 45 consecutive days, 6 days per week
  activity in adjuvant arthritis (in words): essentially analogous to that of ibuprofen
[6]; weight, 100 mg/Kg/die oral
  Suprarenal: 64.5 ± 3.3 mg
  Thymus: 422.3 ± 19.1 mg
[7]; 100 mg/Kg oral
  % inhibition with respect to the control: 78.2%
  No. of Contorsions: 4.5
[7]; 200 mg/Kg oral
  % inhibition with respect to the control: 89.1%
  No. of Contorsions: 2.3
[7]; equal weight, oral
  analgesic activity compared with ibuprofen (in words): equal activity of the two products
[8]; area, inflamed paw, 100 mg/Kg oral
  % INHIBITION WITH RESPECT TO THE CONTROL, I: 110.89%
[8]; area, not inflamed paw, 100 mg/Kg oral
  % INHIBITION WITH RESPECT TO THE CONTROL, NI: 46.93%
[8]; inflamed paw, area of the increase of the pressure tolerated, 100 mg/Kg oral
  AREA ABSOLUTE VALUE, I: 11.7 ± 22.1
[8]; limb in which no injections have been made
  activity expressed in percent of inhibition of the area (in words): fair, lower than the activity of ibuprofen
[8]; limbs affected by edema
  activity expressed in percent of inhibition of the area (in words): high, superior to the activity of ibuprofen
[8]; not inflamed paw, area of the increase of the pressure tolerated, 100 mg/Kg oral
  AREA ABSOLUTE VALUE, NI: -61.20 ± 16.39
[9]; 100 mg/Kg oral
  % inhibition with respect to control: 86.12%
[9]; 1 hour after treatment, 100 mg/Kg oral
  Rectal temperature: 38.22 °C
[9]; 2 hours after treatment, 100 mg/Kg oral
  Rectal temperature: 37.75 °C
[9]; 3 hours after treatment, 100 mg/Kg oral
  Rectal temperature: 37.51 °C
[9]; 4 hours after treatment, 100 mg/Kg oral
  Rectal temperature: 37.16 °C
[9]; 5 hours after treatment, 100 mg/Kg oral
  Rectal temperature: 37.04 °C
[9]; Basal, 100 mg/Kg oral group
  Rectal temperature: 38.73 °C
[9]; equal dose, oral
  antipyretic activity compared with ibuprofen (in words): only slightly inferior to the activity of an equal dose of ibuprofen
[9]; rat, in vivo
  duration of action compared with ibuprofen (in words): longer duration of action
[10]
  effects of gastric lesion (in words): almost negligible
[11]; 15 minutes and 30 minutes after oral 200 mg/kg
  presence in the blood fluid (in words): presence already after a short period of time in the blood fluid
[11]; AFP 802 200 mg/kg vs ibuprofen 100 mg/kg, oral
  area under the curve of the plasma levels of ibuprofen (AUC) (in words): substantially similar in the administration of the two substances
[11]; ibuprofen after AFP 802 vs ibuprofen in equimolar doses
  plasma levels of ibuprofen over time (in words): substantially latent with respect to ibuprofen in equimolar doses
[11]; ibuprofen after oral AFP 802 200 mg/kg
  time when ibuprofen (active metabolite) begins to appear in the blood (in words): the first hour which is the time when ibuprofen, which is its active metabolite, begins to appear
[11]; oral 200 mg/kg
  bioavailability by the oral route (in words): readily bioavailability by the oral route
  presence in the blood after the first hour (in words): found in the blood even after the first hour
[12]; kidney
  ratio of the organ to the plasma for ibuprofen concentrations (in words): lower in the case of kidney
[12]; liver, lungs and uterus
  ratio of the organ to the plasma for ibuprofen concentrations (in words): higher in the case of liver, lungs and uterus
[13]; area, oral every 24 hours, dose AFP 802 115, ibuprofen 60
  % inhibition with respect to the controls: 44.10%
[13]; equimolar oral doses
  inhibition of the inflammation (in words): inhibits the inflammation to a substantial extent with values which overlap with the values obtained in the case of ibuprofen
[13]; oral every 24 hours, dose AFP 802 115, ibuprofen 60
  Area (area under the curve of the increase of the diameter of the articulations): 9799.5 mm^2
